What all share (format): cell-based, human
The test system of one experiment is PC-3 cells. The experiment can be described thus: Intracellular active oxygen (ROS) production, H2DCFDA, PC-3 cells. To be noted: DHMBA 1, 10, 100, and 1000 μM, 24 hours. On the procedure: (§1) The intracellular active oxygen (reactive oxygen species: ROS) was measured using an ROS measurement kit (MAK144-1 Kit, Sigma-Aldrich) using pro-fluorescent substrate H2DCFDA. The PC-3 and DU-145 cells (the cell number of 2.5×10^4/per well, in 0.1 ml of a culture fluid per hole using a 96-hole plate) were cultured in a DMEM culture fluid (containing 10% of FBS, 1% of P/S, and 1% of fungizone) containing the DHMBA (0.1, 1, 10, 100, or 1000 μM) under 5% of CO2, at 37° C., for 24 hours. After the culture, the cells were washed with PBS, 0.1 ml and 25 μM of an H2DCFDA solution was added, and incubation was performed for 45 minutes. Afterwards, the cells were washed with PBS, and as the amount of active oxygen produced in the cells, fluorescence intensity was measured using a fluorescence measurement plate reader at a wavelength Ex/Em=485/535 nm.
(§2) The PC-3 and DU-145 cells (2.5×10^4/0.1 ml of a culture fluid per hole using a 96-hole plate) were cultured under 5% of CO2, at 37° C., for 24 hours in a DMEM culture fluid (containing 10% of FBS, 1% of P/S, and 1% of fungizone) containing the DHMBA (0.1, 1, 10, 100, or 1000 μM). […] After the cells were washed with PBS, a fluorescence intensity of the cells was measured using a fluorescence measurement plate reader at a wavelength Ex/Em=485/535 nm. […]

Experiment [1] deals with DU-145 cells. The experiment can be described thus: Intracellular active oxygen (ROS) production, H2DCFDA, DU-145 cells. The settings on record: DHMBA 1, 10, 100, and 1000 μM, 24 hours. On the procedure:
as §1, §2

The subject of experiment [2] is DU-145 cells. Put plainly: Cell migration scratch assay, DU-145 cells. To be noted: DHMBA 1, 10, 100, or 1000 μM, 48 hours. On the procedure: The migration of the prostate cancer PC-3 and DU-145 cells was examined using a scratch assay. The PC-3 and DU-145 cells (the cell number of 2×10^5/in 1 ml of a culture fluid per hole using a 24-hole plate) were cultured in a DMEM culture fluid containing 10% of FBS, 1% of P/S, and 1% of fungizone under 5% of CO2, at 37° C., for 48 hours, and a straight line scratch was performed using a pipette tip (200 μl) when the cells reached confluence. Free cells were washed with PBS to be removed, the above-described culture fluid (containing 0.1, 1, 10, 100, or 1000 μM of the DHMBA) was added, and the cells were cultured for 48 hours. After the culture, intervals of cell-free parts were measured.
The PC-3 and DU-145 cells (the cell number of 2× 10^5/1 ml of a culture fluid per hole using a 24-hole plate) were cultured under 5% of CO2, at 37° C., for 48 hours in a DMEM culture fluid containing 10% of FBS, 1% of P/S, and 1% of fungizone, and a straight line scratch was performed using a pipette tip (200 μl) when the cells reached confluence. Free cells were washed with PBS to be removed, the above-described culture fluid (containing 0.1, 1, 10, 100, or 1000 μM of the DHMBA) was added, and the cells were cultured for 48 hours. After the culture, intervals of cell-free parts were measured. […]

From US20240350430A1, “GROWTH INHIBITOR OF METASTATIC HUMAN PROSTATE CANCER CELLS” (Watanabe Oyster Laboratory Co., Ltd., priority 2021, published 2024) come the findings set out here.

`COc1c(O)cc(CO)cc1O` [DHMBA, 3,5-dihydroxy-4-methoxybenzyl alcohol]: the “amount of intracellular active oxygen production” value in the experiment with PC-3 cells and with DU-145 cells [1] was “significant inhibition” throughout. Also, in the experiment on DU-145 cells [2], the migration result is recorded as “significantly inhibited”.
